{"source": "patent US10021881B2", "about": "“Vaporized administration of pesticides” (priority 2016, dated 2018)", "key": {"Aspergillus flavus": {"system": "Aspergillus flavus", "assay": "In vitro assay of vaporized pyrimethanil to inhibit pathogenic fungal growth (agar plates)", "type": "cell-based", "conditions": "A. flavus, 3 days at 23° C.", "experimental": "(§1) An in vitro assay was used to evaluate the ability of pyrimethanil to vaporize in order to control the infection of various pathogenic microorganisms when applied to the plants and plant parts. For in vitro experiments, a 12-well microtiter plate, 6-well, or a 10-cm Petri plates each containing 7.5 ml, 16.5 or 22 ml volumes, respectively, of half strength Potato Dextrose Agar (PDA) were prepared. Each well or plate was inoculated with 1 microliter (μL) of 1×10^5 spores/ml of the appropriate pathogenic spore suspension (e.g., Botrytis cinerea, Penicillium expansum, Glomerella cingulata, Penicillium digitatum, Aspergillus flavus, Colletotrichum acutatum, Fusarium sambucinum, and Geotrichum candidum) by spotting the pathogen on the center of the agar well or plate. The inoculated microtiter or Petri plate was then sealed with a breathable film. One set of triplicate plates for each pathogen was placed inside the bottom of an air-tight 36-L desiccator chamber and closed with secure clamps.\n(§2) Evaporation of the acetone left behind solid crystals of pyrimethanil.\n(§3) The tube of the device was attached to a port on the side of the chamber that allowed airflow of the pyrimethanil vapor into the chamber. The chamber was at room temperature during administration of the pyrimethanil. The chambers were then incubated for three (3) days at 23° C. After incubation, post-treatment growth inhibition of each in vitro pathogen was measured on the inoculated plates and compared to control samples."}, "Fusarium sambucinum": {"system": "Fusarium sambucinum", "assay": "In vitro assay of vaporized pyrimethanil to inhibit pathogenic fungal growth (agar plates)", "type": "cell-based", "conditions": "F. sambucinum, 3 days at 23° C.", "experimental": "as §1, §2, §3"}, "Botrytis cinerea": {"system": "Botrytis cinerea", "assay": "In vivo assay of vaporized pyrimethanil to inhibit Botrytis cinerea in blueberries", "conditions": "for Gray Mold Severity (0-4): scale 0 no disease to 4 exceptionally high", "description": "An in vivo assay was used to evaluate the ability of vaporized pyrimethanil to control pathogenic infection of blueberries by Botrytis cinerea."}, "Penicillium expansum [1]": {"system": "Penicillium expansum", "assay": "Drenching vs. vaporizing treatments of apples, browning", "type": "in vivo", "conditions": "for Percent (%) Inhibition of Internal Browning: apples stored nine weeks at 1° C.", "experimental": "An in vivo assay was used to evaluate the ability of vaporized pyrimethanil to control pathogenic infection of apples by Penicillium expansum as compared to drenching methods of apple treatment. Vaporized treatments of apples were performed as previous described in Examples 1-6, with the exception of using a 1 m wide×1 m high×8 m deep tunnel (see FIG. 11). […] In addition, drenching treatments comprising a final concentration of 125 mg/L, 500 mg/L, and 2000 mg/L of pyrimethanil active ingredient were also prepared. Fruits were stored for nine weeks at 1° C., and evaluated in order to observe and/or determine the area of browning on the fruit (see FIG. 22) and the percent of browning inhibition (see Table 7)."}, "Penicillium expansum [2]": {"system": "Penicillium expansum", "assay": "Fogging versus vaporizing treatment of apples, browning of top and bottom wounds", "type": "in vivo", "conditions": "2.66 g in tunnel, 72 hours at 21° C., evaluated 4 days after removal, FIG. 23", "experimental": "An in vivo assay was used to evaluate the ability of vaporized pyrimethanil to control pathogenic infection of apples by Penicillium expansum as compared to fogging methods of apple treatment. Vaporized treatments of apples were performed as previous described in Examples 1-6, with the exception of using a 1 m wide×1 m high×8 m deep tunnel (FIG. 11). A 2.66 g amount of pyrimethanil was either fogged or vaporized into the tunnel. Fruits were exposed to the treatment for 72 hours at 21° C., and then removed from the tunnel and evaluated 4 days after removal in order to observe and/or determine the area of browning wounds at the top and bottom of the fruit (see FIG. 23)."}, "[3]": {"assay": "Particle size estimate from settling of fogged or vaporized pyrimethanil on Petri plates (HPLC)", "type": "physicochemical", "conditions": "for estimated pyrimethanil particle size: vaporized"}, "[4]": {"type": "physicochemical", "experimental": "This example relates to experiments performed to determine if degradation of pyrimethanil technical compounds observed at high temperatures was due to evaporation. In the present example, seven milligrams (7 mg) of pyrimethanil compounds 1 and 2 were analyzed in air by Thermo Gravity Analysis-Mass Spectrometry (TGA-MS). The pyrimethanil samples were loaded onto a TGA platinum pan of the Q5000 TGA instrument (TA instruments) and using standard TGA test methods as follows: select gas 2 (air), data storage on, ramp at 5° C. per minute to 100° C., isothermal for 180 mins, data storage off, equilibrate at 60° C., and end method. An isothermal method was also performed according to standard methods.\nThe TGA furnace was closed and purged with helium, then heated from room temperature to about 300° C. at 10° C. per minute. […] An isothermal method was also performed according to standard methods."}, "[5]": {"conditions": "Agriphar Pyrimethanil (ISO) Safety Data Sheet; cited from earlier work"}, "[6]": {"conditions": "0.01 mg/L, Day 0 (after 3 days at 21° C.)"}, "[7]": {"conditions": "0.01 mg/L, Day 1 (after 3 days at 21° C.)"}, "[8]": {"conditions": "0.01 mg/L, Day 2 (after 3 days at 21° C.)"}, "[9]": {"conditions": "0.01 mg/L, Day 3 (after 3 days at 21° C.)"}, "[10]": {"conditions": "0.03 mg/L, Day 0 (after 3 days at 21° C.)"}, "[11]": {"conditions": "0.03 mg/L, Day 1 (after 3 days at 21° C.)"}, "[12]": {"conditions": "0.03 mg/L, Day 2 (after 3 days at 21° C.)"}, "[13]": {"conditions": "0.03 mg/L, Day 3 (after 3 days at 21° C.)"}, "[14]": {"conditions": "0.1 mg/L, Day 0 (after 3 days at 21° C.)"}, "[15]": {"conditions": "0.1 mg/L, Day 1 (after 3 days at 21° C.)"}, "[16]": {"conditions": "0.1 mg/L, Day 2 (after 3 days at 21° C.)"}, "[17]": {"conditions": "0.1 mg/L, Day 3 (after 3 days at 21° C.)"}, "[18]": {"conditions": "0.3 mg/L, Day 0 (after 3 days at 21° C.)"}, "[19]": {"conditions": "0.3 mg/L, Day 1 (after 3 days at 21° C.)"}, "[20]": {"conditions": "0.3 mg/L, Day 2 (after 3 days at 21° C.)"}, "[21]": {"conditions": "0.3 mg/L, Day 3 (after 3 days at 21° C.)"}}}
{"smiles": "Cc1cc(C)nc(Nc2ccccc2)n1", "note": "[pyrimethanil, 4,6-Dimethyl-N-phenylpyrimidin-2-amine]", "values": [{"measurement": "Mycelial Growth Inhibition (%)", "setting": "Aspergillus flavus; 0.1 mg/L headspace", "value": 100.0, "unit": "%"}, {"measurement": "Mycelial Growth Inhibition (%)", "setting": "Aspergillus flavus; 0.3 mg/L headspace", "value": 100.0, "unit": "%"}, {"measurement": "Mycelial Growth Inhibition (%)", "setting": "Aspergillus flavus; 1 mg/L headspace", "value": 100.0, "unit": "%"}, {"measurement": "Mycelial Growth Inhibition (%)", "setting": "Fusarium sambucinum; 0.1 mg/L headspace", "value": 58.3, "unit": "%"}, {"measurement": "Mycelial Growth Inhibition (%)", "setting": "Fusarium sambucinum; 0.3 mg/L headspace", "value": 89.4, "unit": "%"}, {"measurement": "Mycelial Growth Inhibition (%)", "setting": "Fusarium sambucinum; 1 mg/L headspace", "value": 92.2, "unit": "%"}, {"measurement": "Gray Mold Incidence (%)", "setting": "Botrytis cinerea; [6]", "value": 92.6, "unit": "%"}, {"measurement": "Gray Mold Severity (0-4)", "setting": "Botrytis cinerea; [6]", "value": 0.9}, {"measurement": "Gray Mold Incidence (%)", "setting": "Botrytis cinerea; [7]", "value": 96.3, "unit": "%"}, {"measurement": "Gray Mold Severity (0-4)", "setting": "Botrytis cinerea; [7]", "value": 1.1}, {"measurement": "Gray Mold Incidence (%)", "setting": "Botrytis cinerea; [8]", "value": 98.8, "unit": "%"}, {"measurement": "Gray Mold Severity (0-4)", "setting": "Botrytis cinerea; [8]", "value": 1.4}, {"measurement": "Gray Mold Incidence (%)", "setting": "Botrytis cinerea; [9]", "value": 98.8, "unit": "%"}, {"measurement": "Gray Mold Severity (0-4)", "setting": "Botrytis cinerea; [9]", "value": 2.1}, {"measurement": "Gray Mold Incidence (%)", "setting": "Botrytis cinerea; [10]", "value": 82.7, "unit": "%"}, {"measurement": "Gray Mold Severity (0-4)", "setting": "Botrytis cinerea; [10]", "value": 0.7}, {"measurement": "Gray Mold Incidence (%)", "setting": "Botrytis cinerea; [11]", "value": 97.5, "unit": "%"}, {"measurement": "Gray Mold Severity (0-4)", "setting": "Botrytis cinerea; [11]", "value": 1.1}, {"measurement": "Gray Mold Incidence (%)", "setting": "Botrytis cinerea; [12]", "value": 97.5, "unit": "%"}, {"measurement": "Gray Mold Severity (0-4)", "setting": "Botrytis cinerea; [12]", "value": 1.3}, {"measurement": "Gray Mold Incidence (%)", "setting": "Botrytis cinerea; [13]", "value": 97.5, "unit": "%"}, {"measurement": "Gray Mold Severity (0-4)", "setting": "Botrytis cinerea; [13]", "value": 1.7}, {"measurement": "Gray Mold Incidence (%)", "setting": "Botrytis cinerea; [14]", "value": 64.2, "unit": "%"}, {"measurement": "Gray Mold Severity (0-4)", "setting": "Botrytis cinerea; [14]", "value": 0.5}, {"measurement": "Gray Mold Incidence (%)", "setting": "Botrytis cinerea; [15]", "value": 87.8, "unit": "%"}, {"measurement": "Gray Mold Severity (0-4)", "setting": "Botrytis cinerea; [15]", "value": 0.9}, {"measurement": "Gray Mold Incidence (%)", "setting": "Botrytis cinerea; [16]", "value": 94.8, "unit": "%"}, {"measurement": "Gray Mold Severity (0-4)", "setting": "Botrytis cinerea; [16]", "value": 1.1}, {"measurement": "Gray Mold Incidence (%)", "setting": "Botrytis cinerea; [17]", "value": 94.6, "unit": "%"}, {"measurement": "Gray Mold Severity (0-4)", "setting": "Botrytis cinerea; [17]", "value": 1.7}, {"measurement": "Gray Mold Incidence (%)", "setting": "Botrytis cinerea; [18]", "value": 22.2, "unit": "%"}, {"measurement": "Gray Mold Severity (0-4)", "setting": "Botrytis cinerea; [18]", "value": 0.2}, {"measurement": "Gray Mold Incidence (%)", "setting": "Botrytis cinerea; [19]", "value": 33.8, "unit": "%"}, {"measurement": "Gray Mold Severity (0-4)", "setting": "Botrytis cinerea; [19]", "value": 0.2}, {"measurement": "Gray Mold Incidence (%)", "setting": "Botrytis cinerea; [20]", "value": 51.2, "unit": "%"}, {"measurement": "Gray Mold Severity (0-4)", "setting": "Botrytis cinerea; [20]", "value": 0.3}, {"measurement": "Gray Mold Incidence (%)", "setting": "Botrytis cinerea; [21]", "value": 52.0, "unit": "%"}, {"measurement": "Gray Mold Severity (0-4)", "setting": "Botrytis cinerea; [21]", "value": 0.3}, {"measurement": "Percent (%) Inhibition of Internal Browning", "setting": "Penicillium expansum [1]; DRENCH, Treatment Rate 500 mg/L", "value": 47, "unit": "%"}, {"measurement": "Percent (%) Inhibition of Internal Browning", "setting": "Penicillium expansum [1]; DRENCH, Treatment Rate 2,000 mg/L", "value": 69, "unit": "%"}, {"measurement": "Percent (%) Inhibition of Internal Browning", "setting": "Penicillium expansum [1]; VAPOR, Treatment Rate 0.5 mg/L", "value": 96, "unit": "%"}, {"measurement": "Percent (%) Inhibition of Internal Browning", "setting": "Penicillium expansum [1]; VAPOR, Treatment Rate 2 mg/L", "value": 100, "unit": "%"}, {"measurement": "area of browning, vaporized compared with drenched", "setting": "Penicillium expansum [1]; apples treated in a preventative manner, nine weeks at 1° C., FIG. 22", "value": "less area (mm) of browning"}, {"measurement": "browning at the bottom of the fruit, vaporized compared with fogged", "setting": "Penicillium expansum [2]", "value": "much less area (mm) of browning"}, {"measurement": "browning on the top of the fruit, vaporized compared with fogged", "setting": "Penicillium expansum [2]", "value": "comparable browning"}, {"measurement": "percent of total pyrimethanil settled on the plates", "setting": "[3]; FOG (MeOH + PYR), Settling Time 7.5 Minutes, Particle Size 5.9 (μm)", "value": 61, "unit": "%"}, {"measurement": "percent of total pyrimethanil settled on the plates", "setting": "[3]; FOG (MeOH + PYR), Settling Time 15 Minutes, Particle Size 4.1 (μm)", "value": 77, "unit": "%"}, {"measurement": "percent of total pyrimethanil settled on the plates", "setting": "[3]; FOG (MeOH + PYR), Settling Time 30 Minutes, Particle Size 2.8 (μm)", "value": 100, "unit": "%"}, {"measurement": "percent of total pyrimethanil settled on the plates", "setting": "[3]; FOG (MeOH + PYR), Settling Time 60 Minutes, Particle Size 1.9 (μm)", "value": 100, "unit": "%"}, {"measurement": "percent of total pyrimethanil settled on the plates", "setting": "[3]; FOG (MeOH + PYR), Settling Time 360 Minutes, Particle Size 0.75 (μm)", "value": 100, "unit": "%"}, {"measurement": "percent of total pyrimethanil settled on the plates", "setting": "[3]; VAPOR (100% Technical PYR), Settling Time 60 Minutes, Particle Size 1.9 (μm)", "value": 26, "unit": "%"}, {"measurement": "percent of total pyrimethanil settled on the plates", "setting": "[3]; VAPOR (100% Technical PYR), Settling Time 360 Minutes, Particle Size 0.75 (μm)", "value": 91, "unit": "%"}, {"measurement": "particle size", "setting": "[3]; fog particles, 100% settled after 30 minutes", "value": "approximately 2.8 micron"}, {"measurement": "estimated pyrimethanil particle size", "setting": "[3]; 26% settled after 60 minutes", "value": 1.9, "unit": "micron"}, {"measurement": "estimated pyrimethanil particle size", "setting": "[3]; 91% settled after 360 minutes", "value": 0.75, "unit": "micron"}, {"measurement": "thermal degradation", "setting": "[4]", "value": "no thermal degradation"}, {"measurement": "known thermal decomposition range", "setting": "[5]", "value": "189.54-344.74 °C"}]}
